From patent US10413535B2, “Pharmaceutical compositions comprising an integrin ALPHA4 antagonist for use in treating ocular inflammatory conditions” (AXEROVISION, INC., priority 2015, dated 2019)
Read-outs that look alike come from different tables or passages of the source.

Test: Toxicokinetics in 13-week topical ocular dog study
Details: beagle, in vivo, topical or ocular
Protocol: GW559090A was given to Beagle Dogs by topical ocular administration for 13 weeks. Animals were dosed six or twelve times per day, with one hour between doses. Treatment groups were: (1) vehicle (12 times a day), (2) 30 mg/mL/occasion given six times a day, (3) 50 mg/mL/occasion given six times a day, or (4) 50 mg/mL/occasion, given 12 times a day.
GW559090A was formulated as a stock solution in 25 mM phosphate buffer with 0.5% sodium chloride to provide a 50 mg/mL stock solution, which was used for administration to Groups 3 or 4, or further diluted with 25 mM phosphate buffer with 0.75% sodium chloride to provide a 30 mg/mL solution for administration to Group 2.
During the 13 week treatment period dogs received daily topical ocular doses of GW559090 or vehicle (12 times a day) at a constant dose volume of 0.06 mL (given 6 or 12 times a day, with one hour between doses). The test article formulation or vehicle was carefully dropped into the everted lower eyelid of the left eye from a suitable distance, to prevent contact of the positive displacement pipette with the eye. The lower and upper lids were then gently held together for approximately five seconds, to prevent loss of dose and aid even distribution across the external ocular surface. The un-dosed eye was not manipulated at any time and served as a within animal untreated control site.

Cc1ccccc1OCC(=O)N[C@@H](CC(C)C)C(=O)N[C@@H](Cc1ccc(OC(=O)N2CCC(C(N)=O)CC2)cc1)C(=O)O [GW559090, (2S)-3-[4-({[4-(Aminocarbonyl)-1-piperidinyl]carbonyl}oxy)phenyl]-2-[((2S)-4-methyl-2-{[2-(2-methylphenoxy)acetyl]amino}pentanoyl)amino]propanoic acid]
Tmax (female, 50 mg/mL/occasion, female dogs, 50 mg/mL, 12 daily doses, Week 13): 15 min
AUC(0-t) (female, 50 mg/mL/occasion, female dogs, 50 mg/mL, 12 daily doses, Week 13, read-out: AUC0-1): 12.1 ng·h/mL
AUC(0-t) (female, 50 mg/mL/occasion, female dogs, 50 mg/mL, 12 daily doses, Week 13, read-out: AUC0-24): 146 ng·h/mL
Cmax (female, 50 mg/mL/occasion, female dogs, 50 mg/mL, 12 daily doses, Week 13, read-out: Cmax): 30.5 ng/mL
AUC(0-t) (male, 30 mg/mL/occasion, male dogs, 30 mg/mL, 6 daily doses, Day 1, read-out: AUC0-1): 3.82 ng·h/mL
AUC(0-t) (male, 30 mg/mL/occasion, male dogs, 30 mg/mL, 6 daily doses, Day 1, read-out: AUC0-24): 22.9 ng·h/mL
Cmax (male, 30 mg/mL/occasion, male dogs, 30 mg/mL, 6 daily doses, Day 1, read-out: Cmax): 7.41 ng/mL
Tmax (male, 30 mg/mL/occasion, male dogs, 30 mg/mL, 6 daily doses, Week 4): 15 min
AUC(0-t) (male, 30 mg/mL/occasion, male dogs, 30 mg/mL, 6 daily doses, Week 4, read-out: AUC0-1): 2.27 ng·h/mL
AUC(0-t) (male, 30 mg/mL/occasion, male dogs, 30 mg/mL, 6 daily doses, Week 4, read-out: AUC0-24): 13.6 ng·h/mL
Cmax (male, 30 mg/mL/occasion, male dogs, 30 mg/mL, 6 daily doses, Week 4, read-out: Cmax): 5.3 ng/mL
Tmax (male, 30 mg/mL/occasion, male dogs, 30 mg/mL, 6 daily doses, Week 13): 30 min
AUC(0-t) (male, 30 mg/mL/occasion, male dogs, 30 mg/mL, 6 daily doses, Week 13, read-out: AUC0-1): 3.81 ng·h/mL
AUC(0-t) (male, 30 mg/mL/occasion, male dogs, 30 mg/mL, 6 daily doses, Week 13, read-out: AUC0-24): 22.9 ng·h/mL
Cmax (male, 30 mg/mL/occasion, male dogs, 30 mg/mL, 6 daily doses, Week 13, read-out: Cmax): 7.03 ng/mL
Tmax (male, 50 mg/mL/occasion, male dogs, 50 mg/mL, 6 daily doses, Day 1): 4.98 min
AUC(0-t) (male, 50 mg/mL/occasion, male dogs, 50 mg/mL, 6 daily doses, Day 1, read-out: AUC0-1): 18.4 ng·h/mL
AUC(0-t) (male, 50 mg/mL/occasion, male dogs, 50 mg/mL, 6 daily doses, Day 1, read-out: AUC0-24): 110 ng·h/mL
Cmax (male, 50 mg/mL/occasion, male dogs, 50 mg/mL, 6 daily doses, Day 1, read-out: Cmax): 52.8 ng/mL
Tmax (male, 50 mg/mL/occasion, male dogs, 50 mg/mL, 6 daily doses, Week 4): 10 min
AUC(0-t) (male, 50 mg/mL/occasion, male dogs, 50 mg/mL, 6 daily doses, Week 4, read-out: AUC0-1): 8.74 ng·h/mL
AUC(0-t) (male, 50 mg/mL/occasion, male dogs, 50 mg/mL, 6 daily doses, Week 4, read-out: AUC0-24): 52.4 ng·h/mL
Cmax (male, 50 mg/mL/occasion, male dogs, 50 mg/mL, 6 daily doses, Week 4, read-out: Cmax): 24.2 ng/mL
Tmax (male, 50 mg/mL/occasion, male dogs, 50 mg/mL, 6 daily doses, Week 13): 15 min
AUC(0-t) (male, 50 mg/mL/occasion, male dogs, 50 mg/mL, 6 daily doses, Week 13, read-out: AUC0-1): 6.36 ng·h/mL
AUC(0-t) (male, 50 mg/mL/occasion, male dogs, 50 mg/mL, 6 daily doses, Week 13, read-out: AUC0-24): 38.2 ng·h/mL
Cmax (male, 50 mg/mL/occasion, male dogs, 50 mg/mL, 6 daily doses, Week 13, read-out: Cmax): 13.2 ng/mL
Tmax (male, 50 mg/mL/occasion, male dogs, 50 mg/mL, 12 daily doses, Day 1): 22.5 min
AUC(0-t) (male, 50 mg/mL/occasion, male dogs, 50 mg/mL, 12 daily doses, Day 1, read-out: AUC0-1): 36.6 ng·h/mL
AUC(0-t) (male, 50 mg/mL/occasion, male dogs, 50 mg/mL, 12 daily doses, Day 1, read-out: AUC0-24): 439 ng·h/mL
Cmax (male, 50 mg/mL/occasion, male dogs, 50 mg/mL, 12 daily doses, Day 1, read-out: Cmax): 69.7 ng/mL
Tmax (male, 50 mg/mL/occasion, male dogs, 50 mg/mL, 12 daily doses, Week 4): 15 min
AUC(0-t) (male, 50 mg/mL/occasion, male dogs, 50 mg/mL, 12 daily doses, Week 4, read-out: AUC0-1): 11.8 ng·h/mL
AUC(0-t) (male, 50 mg/mL/occasion, male dogs, 50 mg/mL, 12 daily doses, Week 4, read-out: AUC0-24): 142 ng·h/mL
Cmax (male, 50 mg/mL/occasion, male dogs, 50 mg/mL, 12 daily doses, Week 4, read-out: Cmax): 23.8 ng/mL
Tmax (male, 50 mg/mL/occasion, male dogs, 50 mg/mL, 12 daily doses, Week 13): 15 min
AUC(0-t) (male, 50 mg/mL/occasion, male dogs, 50 mg/mL, 12 daily doses, Week 13, read-out: AUC0-1): 10.2 ng·h/mL
AUC(0-t) (male, 50 mg/mL/occasion, male dogs, 50 mg/mL, 12 daily doses, Week 13, read-out: AUC0-24): 122 ng·h/mL
Cmax (male, 50 mg/mL/occasion, male dogs, 50 mg/mL, 12 daily doses, Week 13, read-out: Cmax): 26.8 ng/mL
